Test results as given in the NIST ThermoML archive (doi:10.1021/je2007764).
Numbers after ± are expanded uncertainties.

Assay: xn = mol fraction of the nth substance listed
Conditions: Fluid (supercritical or subcritical phases), Buoyancy - hydrostatic balance with magnetic suspension - one sinker

[C-]#[O+] [carbon monoxide] + N#N
mass density [kg/m3]
Conditions | x1 = 0.04999 | x1 = 0.1002
324.98 K, 9998.7 kPa | – | 101.905 ± 0.12
324.98 K, 10007 kPa | 101.939 ± 0.12 | –
324.98 K, 10997 kPa | 111.619 ± 0.14 | –
324.98 K, 11997 kPa | – | 121.32 ± 0.15
324.98 K, 12000 kPa | 121.293 ± 0.15 | –
324.98 K, 12999 kPa | 130.817 ± 0.16 | –
324.98 K, 13996 kPa | – | 140.254 ± 0.17
324.98 K, 15957 kPa | 158.239 ± 0.19 | –
324.98 K, 15995 kPa | – | 158.639 ± 0.19
324.98 K, 17995 kPa | 176.379 ± 0.21 | –
324.98 K, 17996 kPa | – | 176.463 ± 0.21
324.98 K, 19931 kPa | 193.033 ± 0.23 | –
324.98 K, 19948 kPa | – | 193.262 ± 0.23
324.99 K, 14116 kPa | 141.303 ± 0.17 | –
349.96 K, 991.96 kPa | – | 9.538 ± 0.012
349.96 K, 2999.2 kPa | – | 28.731 ± 0.035
349.96 K, 4997.9 kPa | – | 47.663 ± 0.058
349.96 K, 6997.9 kPa | – | 66.355 ± 0.081
349.96 K, 8997.6 kPa | – | 84.725 ± 0.1
349.96 K, 10998 kPa | – | 102.742 ± 0.12
349.96 K, 12999 kPa | – | 120.335 ± 0.15
349.96 K, 14996 kPa | – | 137.446 ± 0.17
349.96 K, 16994 kPa | – | 154.09 ± 0.19
349.96 K, 18214 kPa | – | 164 ± 0.2
349.97 K, 991.18 kPa | 9.53 ± 0.012 | –
349.97 K, 993.39 kPa | – | 9.551 ± 0.012
349.97 K, 1959 kPa | 18.808 ± 0.023 | –
349.97 K, 1978.8 kPa | – | 18.999 ± 0.023
349.97 K, 3922.5 kPa | – | 37.508 ± 0.046
349.97 K, 4004.8 kPa | 38.283 ± 0.047 | –
349.97 K, 5997.7 kPa | – | 57.048 ± 0.069
349.97 K, 5998.2 kPa | 57.037 ± 0.069 | –
349.97 K, 7998.9 kPa | – | 75.601 ± 0.092
349.97 K, 8018.6 kPa | 75.757 ± 0.092 | –
349.97 K, 9998.3 kPa | – | 93.794 ± 0.11
349.97 K, 10022 kPa | 93.976 ± 0.11 | –
349.97 K, 11997 kPa | – | 111.586 ± 0.14
349.97 K, 12018 kPa | 111.731 ± 0.14 | –
349.97 K, 13995 kPa | – | 128.938 ± 0.16
349.97 K, 13997 kPa | 128.911 ± 0.16 | –
349.97 K, 15994 kPa | 145.784 ± 0.18 | 145.829 ± 0.18
349.97 K, 17992 kPa | 162.172 ± 0.2 | 162.217 ± 0.2
349.97 K, 19655 kPa | 175.42 ± 0.21 | –
349.97 K, 19959 kPa | – | 177.859 ± 0.22
374.95 K, 1995 kPa | – | 17.848 ± 0.022
374.95 K, 2998.2 kPa | – | 26.743 ± 0.033
374.95 K, 4980.9 kPa | – | 44.17 ± 0.054
374.95 K, 6997.6 kPa | – | 61.627 ± 0.075
374.95 K, 8997.4 kPa | – | 78.624 ± 0.096
374.95 K, 10995 kPa | – | 95.265 ± 0.12
374.95 K, 12994 kPa | – | 111.524 ± 0.14
374.95 K, 15016 kPa | – | 127.569 ± 0.15
374.95 K, 16990 kPa | – | 142.823 ± 0.17
374.95 K, 19967 kPa | – | 165.012 ± 0.2
374.96 K, 991.14 kPa | 8.887 ± 0.011 | –
374.96 K, 993.41 kPa | – | 8.908 ± 0.011
374.96 K, 1989.3 kPa | 17.794 ± 0.022 | –
374.96 K, 3998.5 kPa | 35.556 ± 0.043 | –
374.96 K, 4004.8 kPa | – | 35.621 ± 0.043
374.96 K, 5997.9 kPa | 52.996 ± 0.065 | –
374.96 K, 5999 kPa | – | 53.019 ± 0.065
374.96 K, 7996.5 kPa | 70.138 ± 0.085 | –
374.96 K, 8024.2 kPa | – | 70.391 ± 0.086
374.96 K, 9996 kPa | 86.957 ± 0.11 | –
374.96 K, 9997.9 kPa | – | 86.999 ± 0.11
374.96 K, 11988 kPa | – | 103.381 ± 0.13
374.96 K, 11996 kPa | 103.411 ± 0.13 | –
374.96 K, 13993 kPa | – | 119.504 ± 0.14
374.96 K, 13995 kPa | 119.477 ± 0.14 | –
374.96 K, 15990 kPa | 135.101 ± 0.16 | 135.151 ± 0.16
374.96 K, 17987 kPa | – | 150.362 ± 0.18
374.96 K, 17988 kPa | 150.312 ± 0.18 | –
374.96 K, 18988 kPa | – | 157.82 ± 0.19
374.96 K, 19817 kPa | 163.859 ± 0.2 | –
374.96 K, 19971 kPa | – | 165.047 ± 0.2
400.02 K, 984.4 kPa | – | 8.268 ± 0.01
400.02 K, 997.16 kPa | – | 8.375 ± 0.011
400.02 K, 1934.5 kPa | 16.2 ± 0.02 | –
400.02 K, 1975.5 kPa | – | 16.545 ± 0.02
400.02 K, 2994.3 kPa | – | 24.985 ± 0.031
400.02 K, 3986.3 kPa | 33.151 ± 0.04 | –
400.02 K, 3997.3 kPa | – | 33.254 ± 0.041
400.02 K, 4997.1 kPa | – | 41.415 ± 0.05
400.02 K, 5996.1 kPa | – | 49.523 ± 0.06
400.02 K, 5998 kPa | 49.518 ± 0.06 | –
400.02 K, 7005.5 kPa | – | 57.622 ± 0.07
400.02 K, 7994.6 kPa | – | 65.495 ± 0.08
400.02 K, 7996.6 kPa | 65.491 ± 0.08 | –
400.02 K, 8987 kPa | – | 73.307 ± 0.089
400.02 K, 9895.5 kPa | – | 80.402 ± 0.098
400.02 K, 9973.2 kPa | 80.982 ± 0.098 | –
400.02 K, 11025 kPa | – | 89.118 ± 0.11
400.02 K, 11992 kPa | 96.459 ± 0.12 | –
400.02 K, 11994 kPa | – | 96.505 ± 0.12
400.02 K, 12991 kPa | – | 104.017 ± 0.13
400.02 K, 13990 kPa | 111.428 ± 0.14 | 111.464 ± 0.14
400.02 K, 14988 kPa | – | 118.8 ± 0.14
400.02 K, 15986 kPa | 126.014 ± 0.15 | 126.048 ± 0.15
400.02 K, 16227 kPa | – | 127.785 ± 0.15
400.02 K, 17982 kPa | – | 140.257 ± 0.17
400.02 K, 17985 kPa | 140.246 ± 0.17 | –
400.02 K, 19027 kPa | 147.507 ± 0.18 | –
400.03 K, 18458 kPa | – | 143.591 ± 0.17
